One may read the half-life as the time needed for the level to fall by half in the phase considered. Read a low half-life as fast loss. Usually IC50 stands for the concentration that gives 50% inhibition. Usually Papp stands for a coefficient for how fast a substance crosses the barrier. Read a high Papp as ready permeation.

These results are taken from patent US12018093B2, “Hemiasterlin derivatives and antibody-drug conjugates including same” (priority 2017, dated 2024).

Data set [1] in a line: Pharmacokinetic evaluation test using mice. Format: in vivo. How it is done:
A pharmacokinetic evaluation test was performed by single intravenous administration of Example 4 at a dose of 1.0 mg/kg to mice. A calibration curve was made from measurements of Example 4 with known concentration, and by interpolating measurements of each specimen to this, the amount of the compound contained in unit volume of each plasma was calculated using LC-MS. Pharmacokinetics of compound 14 and hemiasterlin were similarly evaluated.
(n.d. in the tables means less than the detection limit value (0.5 ng/mL).)

The subject of data set [2] is SU-DHL-1 cells. Put plainly: Cellular toxicity test (1), CellTiter-Glo, SU-DHL-1. The data set is classed as cell-based. Particulars: Homo sapiens, 96 h, cultured 4 days, cell viability. How it is done: (§1) SU-DHL-1 cells (American Type Culture Collection, hereinafter, ATCC) and Karpas-299 cells (European Collection of Authenticated Cell Cultures, hereinafter, ECACC), which are human lymphoma cell lines, were cultured in RPMI 1640 (GIBCO) containing 10% fetal bovine serum (MP Biomedicals) (hereinafter, referred to as the “culture medium” in this test). SU-DHL-1 cells and Karpas-299 cells were prepared to be 2×10^6 cells/mL in the culture medium, and were added to a 96 well microplate for cell culturing in an amount of 50 μL for each well. Compounds of Examples or hemiasterlin 4 times diluted with the culture medium in 8 stages were added to the microplate in an amount of 50 μL for each well. To wells to which the test substance was not added, the culture medium was added in an amount of 50 μL for each well. These were cultured at 37 degree under 5% CO2 for 4 days. After culturing, the microplate was taken out from the incubator, and was left at rest at room temperature for 10 minutes. To each well, 50 μL of CellTiter-Glo Luminescent Cell Viability Assay (Promega) was added, and the resultant mixture was stirred. This mixture was incubated at a dark place for 20 minutes. Using a microplate luminometer, luminescence at each well was measured, thereby calculating the cell viability for each concentration of the test substance. From the cell viability, the IC50 value of the test substance was determined.
(§2) The IC50 value was calculated by the following formula: IC50(nM)=antilog(LOG10(a/b)×(e−d)/(c−d)+LOG10b) • a: concentration a of test substance • b: concentration b of test substance • c: cell viability upon adding test substance with concentration a • d: cell viability upon adding test substance with concentration b • e: intermediate value between maximum and minimum among cell viabilities upon • adding test substances with different concentrations (a and b are concentrations crossing the cell viability e, and a>b is indicated).
(§3) The cell viability at each concentration was calculated by the following formula: Cell Viability (%)=a′/b′×100 • a′: mean value of luminescence amount of wells to which test substance was added (n=6) • b′: mean value of luminescence amount of wells to which test substance was not added (n=6) • (n represents the number of evaluations performed per test substance concentration).

The nature of data set [3]: in vitro. Particulars: PAMPA, pH 7.4. How it is done:
By the parallel artificial membrane permeability assay (PAMPA), the membrane permeability of compounds of Examples was examined as follows: To the donor plate, System solution (pION inc.) and GIT Lipid-0 (pION inc.) were added in an amount of 200 μL and 4 μL for each well, respectively. To the acceptor plate, Acceptor Sink Buffer (pION inc.) was added in an amount of 200 μL. Both plates were superposed and incubated at 37° C. for 4 hours, and then, UVs in the solutions on the side of acceptor and on the side of donor were measured with an UV plate reader (190 to 500 nm). Compounds with poor UV absorption were measured by LC-MS. The permeability coefficient Pe (10^−6 cm/sec) of the drug was calculated by the following formula.
(In PAMPA a lipid-coated filter parts donor from acceptor wells.)

The test system of data set [4] is SK-BR-3 cells. In words: Cellular toxicity test (2), CellTiter-Glo, SK-BR-3. The data set is classed as cell-based. The conditions noted are these: Homo sapiens, 72 h, cultured 3 days, cell viability. The procedure: as §2, §3
SK-BR-3 cells (ATCC), which are a human breast cancer cell line, were cultured in McCoy's 5A (GIBCO) containing 10% fetal bovine serum (MP Biomedicals) (hereinafter, referred to as the “culture medium” in this test). SK-BR-3 cells were prepared to be 2×10^6 cells/mL in the culture medium, added to a 96 well microplate for cell culturing in an amount of 50 μL for each well, and cultured at 37 degree under 5% CO2 overnight, and then, compounds of Examples or hemiasterlin 4 times diluted with the culture medium in 8 stages were added to the microplate in an amount of 50 μL for each well. To wells to which the test substance was not added, the culture medium was added in an amount of 50 μL for each well. These were cultured at 37 degree under 5% CO2 for 3 days. After culturing, the microplate was taken out from the incubator, and was left at rest at room temperature for 10 minutes. 50 μL of CellTiter-Glo Luminescent Cell Viability Assay (Promega) was added, and the resultant mixture was stirred. This mixture was incubated at a dark place for 20 minutes. Using a microplate luminometer, luminescence at each well was measured, thereby calculating the cell viability for each concentration of the test substance. The IC50 value was calculated in accordance with the method described in Test Example 3.
On the technique in general: Cellular ATP, detected with luciferase, serves as a proxy for viable cell number.

For data set [5], the system named is Karpas-299 cells. Put plainly: Cellular toxicity test (1), CellTiter-Glo, Karpas-299. The data set is classed as cell-based. Particulars: Homo sapiens, 96 h, cultured 4 days, cell viability. How it is done: as §1, §2, §3
Data set [6] addresses porcine tubulin (Sus scrofa, UniProt P02550+P02554). Put plainly: Activity for inhibiting microtubule polymerization using porcine tubulins (1). More on the design: purchased Cytoskeleton Inc. BK006P. Format: biochemical. The conditions noted are these: compound 0.91 μM; absorbance at 340 nm, 37° C.; FIG. 1 and FIG. 2.

“Also recorded” adds a separate entry of the source. Bounds are passed on as bounds.

Chain of porcine tubulin (P02554 whole entry): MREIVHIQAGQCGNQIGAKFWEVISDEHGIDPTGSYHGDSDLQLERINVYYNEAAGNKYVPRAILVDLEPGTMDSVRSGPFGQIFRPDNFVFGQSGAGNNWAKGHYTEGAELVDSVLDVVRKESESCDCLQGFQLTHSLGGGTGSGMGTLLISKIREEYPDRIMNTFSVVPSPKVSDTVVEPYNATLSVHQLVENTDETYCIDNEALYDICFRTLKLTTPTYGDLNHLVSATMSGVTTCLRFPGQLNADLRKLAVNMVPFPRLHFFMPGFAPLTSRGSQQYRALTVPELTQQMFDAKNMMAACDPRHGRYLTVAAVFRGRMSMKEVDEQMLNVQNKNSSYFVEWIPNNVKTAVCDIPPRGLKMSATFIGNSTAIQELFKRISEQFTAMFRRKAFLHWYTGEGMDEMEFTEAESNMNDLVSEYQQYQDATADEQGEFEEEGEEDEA
Chain of porcine tubulin (P02550 whole entry): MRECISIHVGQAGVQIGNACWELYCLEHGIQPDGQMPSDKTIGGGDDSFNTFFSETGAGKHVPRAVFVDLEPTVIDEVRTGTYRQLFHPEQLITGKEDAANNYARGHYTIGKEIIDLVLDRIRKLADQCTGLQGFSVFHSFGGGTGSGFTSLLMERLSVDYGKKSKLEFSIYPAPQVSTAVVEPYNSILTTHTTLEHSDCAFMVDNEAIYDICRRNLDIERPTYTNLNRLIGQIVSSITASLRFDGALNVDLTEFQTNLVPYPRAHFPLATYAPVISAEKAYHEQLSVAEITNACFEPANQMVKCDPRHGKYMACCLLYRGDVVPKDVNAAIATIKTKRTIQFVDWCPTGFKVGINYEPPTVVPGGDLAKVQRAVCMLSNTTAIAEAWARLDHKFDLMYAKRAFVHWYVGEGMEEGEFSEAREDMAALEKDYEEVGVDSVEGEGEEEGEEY

On to `CCOC(=O)[C@@H](CCC(=O)O)NC(=O)/C(C)=C/[C@H](C(C)C)N(C)C(=O)[C@@H](NC(=O)[C@@H](NC)C(C)(C)c1cn(C)c2ccccc12)C(C)(C)C` [Example 14], for which the half-life in data set [1] (mouse, plasma, 1 mg/kg, single intravenous administration) was less than 30 min. Besides, the “Blood concentration of Example 14” value is “n.d. (less than the detection limit value (0.5 ng/mL))” in data set [1] (single intravenous administration of Example 14, 0.5 hr, animal 1); “n.d. (less than the detection limit value (0.5 ng/mL))” in data set [1] (single intravenous administration of Example 14, 0.5 hr, animal 2); “n.d. (less than the detection limit value (0.5 ng/mL))” in data set [1] (single intravenous administration of Example 14, 0.5 hr, animal 3); “n.d. (less than the detection limit value (0.5 ng/mL))” in data set [1] (single intravenous administration of Example 14, 2 hr, animal 1); “n.d. (less than the detection limit value (0.5 ng/mL))” in data set [1] (single intravenous administration of Example 14, 2 hr, animal 2); “n.d. (less than the detection limit value (0.5 ng/mL))” in data set [1] (single intravenous administration of Example 14, 2 hr, animal 3). Further, the “Blood concentration of Example 14” value in data set [1] (single intravenous administration of Example 14, 6 hr, animal 1) is “n.d. (less than the detection limit value (0.5 ng/mL))”; in data set [1] (single intravenous administration of Example 14, 6 hr, animal 2), “n.d. (less than the detection limit value (0.5 ng/mL))”; in data set [1] (single intravenous administration of Example 14, 6 hr, animal 3) it was “n.d. (less than the detection limit value (0.5 ng/mL))”; in data set [1] (single intravenous administration of Example 14, 24 hr, animal 1), “n.d. (less than the detection limit value (0.5 ng/mL))”; in data set [1] (single intravenous administration of Example 14, 24 hr, animal 2), “n.d. (less than the detection limit value (0.5 ng/mL))”; in data set [1] (single intravenous administration of Example 14, 24 hr, animal 3), “n.d. (less than the detection limit value (0.5 ng/mL))”. The “Blood concentration of Example 14, mean” value is “n.d. (less than the detection limit value (0.5 ng/mL))” in data set [1] (single intravenous administration of Example 14, 0.5 hr); “n.d. (less than the detection limit value (0.5 ng/mL))” in data set [1] (single intravenous administration of Example 14, 2 hr); “n.d. (less than the detection limit value (0.5 ng/mL))” in data set [1] (single intravenous administration of Example 14, 6 hr); “n.d. (less than the detection limit value (0.5 ng/mL))” in data set [1] (single intravenous administration of Example 14, 24 hr). The values for the IC50 in data set [2], in data set [4] and in data set [5] were 0.24 nM, 1.03 nM and 0.12 nM, respectively. This compound also returned a Papp in data set [3] of 45 nm/s. In addition, the “activity for inhibiting microtubule polymerization” value in data set [6] is listed as “exhibited activities for inhibiting microtubule polymerization; also recorded: exhibited polymerization inhibitory activity concentration-dependently”.
